From patent US20100120799A1, “PURINE DERIVATIVES AS IMMUNOMODULATORS” (SMITHKLINE BEECHAM CORPORATION, priority 2007, published 2010)
Where “and” joins values, the source holds several entries; their conditions need not be identical. Identical values can stand only once.

Experiments:
[1] = test system: HCV ET replicon cells (Huh-7, HCV Con1-ET construct); test: Replicon assay: inhibition of Hepatitis C virus replication by supernatants from compound-stimulated human PBMC; format: cell-based; conditions: Huh-7 HCV ET replicon, luciferase, 48 h incubation, read-out: mean EC50 (compound concentration giving a PBMC supernatant inhibiting HCV replication by 50%)
Procedure: Inhibition of Hepatitis C virus Replication by Supernatants from Compound-Stimulated Human Peripheral Blood Mononuclear Cells (PBMC).
An assay was established to measure the antiviral activity in supernatants from human PBMC which had been previously stimulated with compounds.
Activity assays were conducted using an Huh-7 cell line stably-transfected with a dicistronic replicon, comprising the HCV Con1-ET construct (Pietschmann et al., 2002 J. Virol. 2002 76(8):4008-21) and the firefly (Photinus pyralis) luciferase gene, obtained from ReBLikon GmbH, Germany.
1.5×10^4 HCV ET replicon cells per well were grown in 96-well plates overnight in 90 microlitres of cell culture medium. Ten microlitres of three-fold dilutions of PBMC supernatants generated above (stimulation of human donor blood-derived peripheral blood mononuclear cells (PBMC) with test compounds) were added to the ET cells. Following a 48-hour incubation, assay medium was removed and luciferase activity measured in the cell monolayers using the Steadylite assay system (Perkin Elmer). EC50 values were calculated as the compound concentration giving a PBMC supernatant which was able to inhibit HCV replication by 50% compared with a supernatant from unstimulated PBMC cultures.

[2] = test system: Ovalbumin (OVA)-induced acute pulmonary inflammation; test: Ovalbumin-induced acute pulmonary inflammation model; format: in vivo, BALB/c mice; conditions: BAL on day 28
Procedure: Inhibition of Ovalbumin (OVA)—Induced Acute Pulmonary Inflammation. Female BALB/c mice (18-20 g) were inoculated on days 0 and 14, with 10 μg OVA adsorbed to 2 mg aluminium hydroxide in a volume of 0.2 ml phosphate buffered saline (PBS) via the intra-peritoneal route. On days 24-26, mice were intra-nasally challenged with 50 μl of either saline or OVA (formulated as above) under general anaesthesia. […] Doses were given once daily on days 23 to 27 with the initial dose 24 h prior to the first challenge. On the days of challenge, animals were dosed with compound or vehicle one hour after challenge. Animals therefore received a total of 5 doses. Dexamethasone was used as a positive control dosed at 10 mg/kg orally in the same vehicle once daily on days 24 to 27 with the initial dose 1 h prior to the first challenge. Animals therefore received a total of 4 doses. Animals were killed on day 28 (48 hours post last saline or OVA challenge) and bronchoalveolar lavage (BAL) was performed with 5×1 ml (0.1% bovine serum albumin, 10 mM EDTA in PBS) and pooled. Numbers of lymphocytes, macrophages, eosinophils and neutrophils in BAL were identified by light scatter flow cytometry and quantified.

[3] = 5 mg/kg orally once daily days 23 to 27, compared with saline treated controls
[4] = positive control, 10 mg/kg orally once daily days 24 to 27, 10 mg/kg

SMILES	EC50 [1] [nM]	reduction of eosinophil counts in BAL [2, 3] [%]	reduction of lymphocyte counts in BAL [2, 3] [%]	reduction of neutrophil counts in BAL [2, 3] [%]	reduction of eosinophil counts in BAL [2, 4]	reduction of lymphocyte counts in BAL [2, 4]	reduction of neutrophil counts in BAL [2, 4]
CCCCOc1nc(N)c2[nH]c(=O)n(CC3CCOCC3)c2n1 [Example 1, 6-Amino-2-butoxy-9-(tetrahydro-2H-pyran-4-ylmethyl)-7,9-dihydro-8H-purin-8-one]	43	–	–	–	–	–	–
CCCCNc1nc(N)c2[nH]c(=O)n(CC3CCOCC3)c2n1 [Example 4, 6-Amino-2-butylamino-9-(tetrahydro-2H-pyran-4-ylmethyl)-7,9-dihydro-8H-purin-8-one]	1050	72	66	50	–	–	–
CCCCOc1nc(N)c2[nH]c(=O)n(CC3CCCOC3)c2n1 (centres unmarked) [Example 12, 6-Amino-2-butoxy-9-(tetrahydro-2H-pyran-3-ylmethyl)-7,9-dihydro-8H-purin-8-one]	–	67	68	58	–	–	–
C[C@@H]1C[C@H]2[C@@H]3CCC4=CC(=O)C=C[C@]4(C)[C@@]3(F)[C@@H](O)C[C@]2(C)[C@@]1(O)C(=O)CO [dexamethasone, Dexamethasone, reference compound]	–	–	–	–	92% and 86%	87% and 86%	68% and 65%
